Experimental data as given in patent publication US10251845B2, “Fatty acid cysteamine conjugates and their use as activators of autophagy” (Catabasis Pharmaceuticals, Inc., priority 2014, dated 2019).

What was measured:
cell surface CFTR = test: Cell surface biotinylation in HT-29 cells, anti-CFTR immunoblot; type: cell-based; settings: 50 μM, 24 hours
Experimental: The test compound was first solubilized in 100% DMSO as a 50 mM solution, and then diluted 1 to 100 in FBS as a 10× stock solution of 500 μM.
HT-29 cells were seeded at 2.0×10^6 cells in […] in 10% FBS DMEM overnight. The cell media was replaced with drug diluted 1 to 10 in DMEM (final concentration 50 μm in 10% FBS DMEM). 24 hours after drug addition, the cells were processed for cell surface biotinyaltion using Pierce Cell Surface Protein Isolation Kit (Thermo Scientific 89881). Briefly, cells were washed once with cold PBS and incubated with Sulfo-NHS-SS-Biotin for 30 minutes at 4° C. and reaction was stopped by adding Quenching solution. Cells were scraped and lysed and centrifuged at 10,000×g. Cell suspension were incubated with NeutrAvidin Agarose for 60 minutes at room temperature. Cell pellet (intracellular) were lysed in RIPA buffer. Protein bound to NeutrAvidin Agarose (cell surface) were eluted by SDS-PAGE sample buffer containing 50 mM DTT. Both cell surface and intracellular parts were analyzed by immunoblotting with anti-CFTR antibodies.

ΔF508 CFTR = ΔF508 CFTR (Homo sapiens, UniProt P13569, DEL508-508); test: Ussing chamber short circuit current in Fisher Rat Thyroid epithelial cells overexpressing ΔF508-CFTR; type: cell-based; set-up: expressed in transfected cells; host or cells: Fisher Rat Thyroid (FRT) epithelial cells, stably transfected; settings: FRT cells
Experimental: The most prevalent disease causing mutation of the CF transmembrane conductance regulator (CFTR) chloride channel is the deletion of phenylalanine at position 508 in the primary sequence of CFTR (ΔF508-CFTR). This mutation causes a trafficking defect resulting in a severe reduction of ΔF508-CFTR protein at the cell surface. The trafficking defect can be corrected by incubation at low temperature (27° C. overnight) or pharmacologically by small molecules and CFTR correctors. Chloride transport function of Fisher Rat Thyroid (FRT) epithelial cells overexpressing ΔF508-CFTR in monolayers grown on Snapwell™ filter inserts will be monitored as the CFTR agonist evoked short circuit (ISC) current output of an Ussing epithelial voltage clamp apparatus. An objective of this study is to measure the ability of test compounds to restore function to defective ΔF508-CFTR in FRT epithelial cell monolayers.
Measurement of corrector efficacy is divided into two phases. The initial phase is incubation of epithelia with the test compounds for a period of time (that can range from 2 hours to one or two days) in a 37° C. incubator and the second phase is measurement of epithelial ΔF508-CFTR chloride channel current with an epithelial voltage clamp (Ussing assay). The short circuit current (ISC) is measured under short circuit conditions (0 mV transepithelial potential). The ISC magnitude is an index of corrector efficacy and is compared to vehicle and positive control.
Cryopreserved FRT cells stably transfected with ΔF508-CFTR cDNA (Pedemonte et al. (2005) J. CLIN. INVEST., 115, p. 2564-2571) were expanded and plated on Snapwell™ filters for measurement of short circuit current in an Ussing apparatus (Physiologic Instruments, Inc., Sand Diego, Calif.). Cells were grown in Coon's modification of Ham's F-12 media supplemented with zeocin and G-418.
To conduct the assay, a compound of the invention was solubilized as follows: • 1) Prepare 25 mM stock solution in 100% DMSO. • 2) Dilute 12 μL of 25 mM stock solution in 1.20 mL of FBS to make 250 μM intermediate dilution 10× stock (1% DMSO, 99% FBS). Gently vortex all solutions until the solution becomes clear. • 3) Prepare final dilution of 10 μM in 10 mL of Coon's media per well (4 wells×2 mL per well bottom+0.2 mL per insert top=8.8 mL and 1.2 mL reserve for handling losses) by addition of 400 μL of 10× stock and 600 μL of 10× carrier (1% DMSO, 99% FBS) to 9000 μL of Coon's media.
For this example, the test compound was solubilized and added to the appropriate inserts of Ussing chambers (n=4 for each test compound, final test concentration of 10 μM). A DMSO vehicle control and a positive control (VX-809 at 3 μM) were also used. For this particular example, all the test articles, including the positive control, were incubated with the cells for a period of 4 hours. The FRT cell monolayers grown on Snapwell™ filter inserts were transferred to Physiologic Instruments Ussing recording chambers (Physiologic Instruments, Inc., San Diego, Calif.) and superfused with HB-PS on the basolateral side and 78CF-PS on the apical side. One or more 6-channel or 8-channel Physiologic Instruments VCC MC6 or VCC MC8 epithelial voltage clamps were then used in combination to record the short circuit current (ISC) during the entire run. To initiate the ISC measurement, amphotericin (100 μM) was added to the basolateral side of the Snapwell™ filter insert to permeabilize the epithelial cells for 15 min. Forskolin (10 μM), IBMX (100 μM), Genistein (20 μM) and the CFTRinh-172 (20 μM) were added sequentially after the following incubation periods (15 min, 20 min, 10 min, 15 min and 15 min respectively). Data acquisition and analyses were performed using iWorx data acquisition hardware and Labscribe 2 software (iWorx, Dover, N.H.). […]

[1] = II-3 (10 μM)+VX-809 (3 μM)+VX-770 (100 nM), 24 hours, positive control VX-809+VX-770 = 100%

ΔF508 CFTR, sequence (P13569 with tags, fused parts or gaps DEL508-508): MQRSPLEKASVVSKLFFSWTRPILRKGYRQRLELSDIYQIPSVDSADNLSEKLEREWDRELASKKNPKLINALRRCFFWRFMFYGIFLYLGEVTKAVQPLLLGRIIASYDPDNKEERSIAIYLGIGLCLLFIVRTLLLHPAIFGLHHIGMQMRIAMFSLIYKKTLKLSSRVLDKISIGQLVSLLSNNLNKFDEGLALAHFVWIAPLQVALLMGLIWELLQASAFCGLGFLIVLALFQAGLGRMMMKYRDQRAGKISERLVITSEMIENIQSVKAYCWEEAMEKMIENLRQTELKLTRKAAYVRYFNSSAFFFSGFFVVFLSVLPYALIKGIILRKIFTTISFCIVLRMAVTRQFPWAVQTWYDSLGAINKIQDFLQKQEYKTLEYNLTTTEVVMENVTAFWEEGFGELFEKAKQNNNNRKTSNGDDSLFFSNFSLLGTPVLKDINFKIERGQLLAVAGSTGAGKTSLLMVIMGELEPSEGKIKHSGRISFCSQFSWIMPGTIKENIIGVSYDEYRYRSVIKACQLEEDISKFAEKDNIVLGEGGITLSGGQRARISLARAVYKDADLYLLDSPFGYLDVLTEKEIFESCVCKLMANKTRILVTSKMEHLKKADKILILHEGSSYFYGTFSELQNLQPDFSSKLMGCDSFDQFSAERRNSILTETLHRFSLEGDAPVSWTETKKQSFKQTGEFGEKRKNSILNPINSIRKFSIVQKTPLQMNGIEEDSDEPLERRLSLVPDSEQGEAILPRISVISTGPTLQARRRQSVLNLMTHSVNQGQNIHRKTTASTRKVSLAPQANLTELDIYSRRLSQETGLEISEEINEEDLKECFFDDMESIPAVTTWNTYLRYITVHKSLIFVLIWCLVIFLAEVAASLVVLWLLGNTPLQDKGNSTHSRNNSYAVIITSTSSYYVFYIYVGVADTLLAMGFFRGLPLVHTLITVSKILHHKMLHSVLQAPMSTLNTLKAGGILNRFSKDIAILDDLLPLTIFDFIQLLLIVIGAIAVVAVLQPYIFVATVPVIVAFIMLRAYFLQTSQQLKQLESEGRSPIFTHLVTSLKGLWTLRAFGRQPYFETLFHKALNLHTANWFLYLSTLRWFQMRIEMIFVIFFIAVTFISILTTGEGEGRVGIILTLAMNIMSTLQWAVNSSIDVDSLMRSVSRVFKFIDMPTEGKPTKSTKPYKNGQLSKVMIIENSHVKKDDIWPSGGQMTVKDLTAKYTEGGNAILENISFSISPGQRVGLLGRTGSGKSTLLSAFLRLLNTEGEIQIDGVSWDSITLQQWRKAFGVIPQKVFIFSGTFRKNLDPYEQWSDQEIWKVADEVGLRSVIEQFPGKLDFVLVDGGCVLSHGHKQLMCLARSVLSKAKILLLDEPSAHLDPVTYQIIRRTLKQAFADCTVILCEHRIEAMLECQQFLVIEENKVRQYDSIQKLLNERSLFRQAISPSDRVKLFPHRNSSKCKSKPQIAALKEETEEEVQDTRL

For `CC/C=C\C/C=C\C/C=C\C/C=C\C/C=C\C/C=C\CCC(=O)NCCSSC(C)(C)CNC(=O)c1cccnc1` [II-3, N-(2-((2-((4Z,7Z,10Z,13Z,16Z,19Z)-docosa-4,7,10,13,16,19-hexaenamido)ethyl)disulfanyl)-2-methylpropyl)nicotinamide], the “cell surface CFTR compared to vehicle control” value (cell surface CFTR) was “corresponding increase”, the “short circuit current trace” value (ΔF508 CFTR; 10 μM with VX-770 or VX-809+VX-770, 24 hours) was “functionally active” and the “steady state response upon the addition of Forskolin” value (ΔF508 CFTR; II-3 (10 μM)+VX-770 compared with vehicle+VX-770, 24 hours) was “modest response”. The “steady state response upon the addition of Forskolin, % of control” value (ΔF508 CFTR; [1]) was 143.6% and the “steady state response upon the addition of the CFTRinh-172, % of control” value (ΔF508 CFTR; [1]) was 144.0%.
